These results are taken from PMC10706821, “Folate-Appended Hydroxypropyl-β-Cyclodextrin Induces Autophagic Cell Death in Acute Myeloid Leukemia Cells” (International Journal of Molecular Sciences, 2023).

Each structure is given as a SMILES string. pIC50: −log10 of the molar value.

Series [1] deals with HL-60. Kind of series: modified MTT assay (Cell Counting Kit-8), cell proliferation. The series is classed as cell-based, human. The settings on record: Homo sapiens, HL-60, 72 h. As to the method: (§1) The trypan blue dye exclusion method was used to evaluate cell viability. Cells (HL-60, THP1, SKM1 and Kasumi1 cells) were seeded in flat-bottomed 96-well plates at a density of 1 × 10^4 cells in 100 µL medium per well and incubated with FA-HP-β-CyD (0, 0,1, 0.25, 0.5, 0.75, 1 mM) or HP-β-CyD (0, 1, 2.5, 5, 10 mM) for 72 h. Then, viable cells were counted. Cell proliferation was evaluated by a modified MTT assay using Cell Counting Kit-8 (Dojindo Molecular Technologies, Kumamoto, Japan), as previously described. AML cells were cultured in 96-well plates at a density of 1 × 10^4 cells in 100 µL medium per well and incubated with FA-HP-β-CyD or HP-β-CyD for 72 h. The half-maximal inhibitory concentration values (IC50) were determined by non-linear regression using CalcuSyn software version 1.1.1 (Biosoft, Cambridge, UK), as previously described. After obtaining IC50 values for each agent, the antileukemic activity of FA-HP-β-CyD plus cytosine arabinoside (Ara-C) or Venetoclax was evaluated, as previously described. […] CalcuSyn was used to calculate the fraction affected (Fa, in which a value of 0.25 indicates […]) and the CI. This method is capable of quantifying synergistic (CI < 1) and antagonistic (CI > 1) effects at different dose and effect levels.
For orientation: Tetrazolium dyes change colour on reduction, which living cells bring about.

For the next series, the system named is SKM-1. The description is as above. The settings on record: Homo sapiens, SKM-1, 72 h. It is filed as cell-based, human. As to the method: as §1
A further series has as its system THP-1. Described as above. It is filed as cell-based, human. The settings on record: Homo sapiens, THP-1, 72 h. As for the experimental part:
as §1

The subject of another series is AML cell lines. Briefly: trypan blue dye exclusion, cell viability. It is filed as cell-based, human. The settings on record: 72 h; FA-HP-β-CyD up to 1 mM, HP-β-CyD up to 10 mM. As to the method: The trypan blue dye exclusion method was used to evaluate cell viability. Cells (HL-60, THP1, SKM1 and Kasumi1 cells) were seeded in flat-bottomed 96-well plates at a density of 1 × 10^4 cells in 100 µL medium per well and incubated with FA-HP-β-CyD (0, 0,1, 0.25, 0.5, 0.75, 1 mM) or HP-β-CyD (0, 1, 2.5, 5, 10 mM) for 72 h. Then, viable cells were counted. Cell proliferation was evaluated by a modified MTT assay using Cell Counting Kit-8 (Dojindo Molecular Technologies, Kumamoto, Japan), as previously described. AML cells were cultured in 96-well plates at a density of 1 × 10^4 cells in 100 µL medium per well and incubated with FA-HP-β-CyD or HP-β-CyD for 72 h. […] This method is capable of quantifying synergistic (CI < 1) and antagonistic (CI > 1) effects at different dose and effect levels.

Series [2] has as its system HL-60. Kind of series: cell cycle analysis (PI, flow cytometry). The series is classed as cell-based, human. The settings on record: HL-60, 24 h. As to the method: (§2) Cell cycle analyses of AML cell lines (HL-60, THP1, SKM1, and Kasumi1 cells) were performed as described previously. In brief, 1 × 10^6 cells were treated with the indicated concentrations of CyDs. After 24 h of CyD treatment, cells were collected and fixed with 70% ethanol. Cells were then incubated at room temperature for 30 min with 0.1% Triton X-100/0.5% RNase A and stained with 50 μg/mL PI (BD Biosciences, San Jose, CA, USA). Cellular DNA content was analyzed by flow cytometry, and cell cycle profiles were determined in a FACS CantoII flow cytometer with CellQuest software (version 1.0.6, BD Biosciences).
(A flow cytometer gives signals particle by particle.)

For a further series, the system named is Kasumi1. Kind of series: cell cycle analysis (PI, flow cytometry). The settings on record: Kasumi1, 24 h. It is filed as cell-based, human. As to the method:
as §2

Another series concerns SKM1. Kind of series: cell cycle analysis (PI, flow cytometry). It is filed as cell-based, human. The settings on record: SKM1, before and after exposure. As to the method:
as §2

For another series, the system named is THP1. Briefly: cell cycle analysis (PI, flow cytometry). The settings on record: THP1, 24 h. The series is classed as cell-based, human. As for the experimental part: as §2
The next series deals with HL-60 cells. Kind of series: AML xenograft survival model. The series is classed as in vivo, BALB/c Rag-2/JAK3 double-deficient (BRJ) mice. The settings on record: HL-60 xenograft, HP-β-CyD 2086.5 mg/kg i.p. twice a day, FA-HP-β-CyD 249 mg/kg i.p. twice a day, 20 days, n = 6. As to the method:
(§3) BALB/c Rag-2/JAK3 double-deficient (BRJ) mice were housed in a specific pathogen-free barrier facility and used for the xenograft transplantation experiments. All animal experiments were approved by the Institutional Review Board of Saga University and conducted in accordance with the institutional guidelines of animal care of Saga University.
(§4) HL-60 cells or THP-1 cells were injected intravenously into BRJ mice. After 72 h, mice were injected intraperitoneally with 200 μL of vehicle, FA-HP-β-CyD (15 mM, 249 mg/kg), or HP-β-CyD (150 mM, 2086.5 mg/kg) for 20 consecutive days, and survival was monitored daily. Ara-C (100 mg/kg) was injected intraperitoneally for 5 consecutive days from 72 h after transplantation. Venetoclax (25 mg/kg) was orally administered for 20 consecutive days from 72 h after transplantation. Chimerism of human leukemic cells in the BM was determined by flow cytometry after double staining with FITC-conjugated anti-human CD45 (BD Bioscience) and PE/Cy7-conjugated anti-mouse CD45 (BioLegend) antibodies. All surgery was performed under sodium pentobarbital anesthesia to minimize pain. Mice were euthanized with ether when they became moribund or were unable to obtain food or water, as recommended by Saga University institutional guidelines. Survival data were analyzed using a log-rank nonparametric test and presented as Kaplan–Meier survival curves (n = 6 for each group).

The test system of the next series is THP1 cells. Kind of series: AML xenograft survival model. The settings on record: Figure 7B, HP-β-CyD 2086.5 mg/kg i.p. twice a day, FA-HP-β-CyD 249 mg/kg i.p. twice a day, Ara-C 100 mg/kg i.p., 20 days, n = 6. The series is classed as in vivo, BALB/c Rag-2/JAK3 double-deficient (BRJ) mice. As to the method: as §3, §4
The nature of series [3]: peripheral blood cell count after intraperitoneal administration. The settings on record: for Hb / Plt / WBC: seven repeat injections, Day 8.
Method: At 24 h after the first injection, and at 8 days after the last of seven repeat injections, peripheral blood was collected from the tail vein and analyzed by an automated blood cell counter (Celltacα MEK-6500; NIHON KOHDEN, Tokyo, Japan). Data are presented as the mean ± SEM of three independent experiments.

The term pIC50 denotes the IC50 on a negative log10 scale, so that one unit is a factor of ten.

In the case of `CC(O)COC[C@H]1O[C@@H]2O[C@H]3[C@H](O)[C@@H](O)[C@@H](O[C@H]4[C@H](O)[C@@H](O)[C@@H](O[C@H]5[C@H](O)[C@@H](O)[C@@H](O[C@H]6[C@H](O)[C@@H](O)[C@@H](O[C@H]7[C@H](O)[C@@H](O)[C@@H](O[C@H]8[C@H](O)[C@@H](O)[C@@H](O[C@H]1[C@H](O)[C@H]2O)O[C@@H]8COCC(C)O)O[C@@H]7COCC(C)O)O[C@@H]6COCC(C)O)O[C@@H]5COCC(C)O)O[C@@H]4COCC(C)O)O[C@@H]3COCC(C)O` (stereo partly drawn) [HP-β-CyD, 2-Hydroxypropyl-β-cyclodextrin], the values for the pIC50 with HL-60 [1], in the series on SKM-1 and in the series with THP-1 were 2.12, 2.03 and 2.04, respectively. Besides, in the series on AML cell lines, the “cell viability (trypan blue)” value was “reduced the cell viability of the AML cell lines in a dose-dependent manner”. Besides, the “effect on cell cycle status” value with HL-60 [2] is “dose-dependent increase in the percentage of cells in G2/M phase”; in the series on Kasumi1, “dose-dependent increase in the percentage of cells in G2/M phase”; with SKM1 it was “no change in cell cycle”; in the series on THP1, “dose-dependent increase in the percentage of cells in G2/M phase”. Further, the “Median Survival Time” value in the series with HL-60 cells (Figure 7A, Ara-C 100 mg/kg i.p.) turned out to be 38 days; in the series with HL-60 cells (Figure 7C, Venetoclax 25 mg/kg oral gavage daily), 35 days; with THP1 cells, 49.5 days. The “change in blood cell counts compared with vehicle (PBS)” value in series [3] (8 days after intraperitoneal injection, exception: higher dose of HP-β-CyD (10,000 mg/kg b.i.d.)) is “no significant change”. Besides, the Hb is reported as 12.4 ± 0.67 g/dL in series [3] (HP-β-CyD 2000 mg/kg i.p.) and 14.3 ± 0.25 g/dL in series [3] (HP-β-CyD 6000 mg/kg i.p.). Also, the Plt was 64.5 ± 2.29 ×10^4/μL in series [3] (HP-β-CyD 2000 mg/kg i.p.), 60.2 ± 10.69 ×10^4/μL in series [3] (HP-β-CyD 6000 mg/kg i.p.) and 75.5 ± 17.83 ×10^4/μL in series [3] (HP-β-CyD 10,000 mg/kg i.p.). The WBC in series [3] (HP-β-CyD 2000 mg/kg i.p.) was 44.7 ± 12.65 ×10^2/μL; in [3] (HP-β-CyD 6000 mg/kg i.p.), 50.0 ± 2.34 ×10^2/μL; in series [3] (HP-β-CyD 10,000 mg/kg i.p., p < 0.05), 30.5 ± 1.65 ×10^2/μL.
